Test results published in patent US4120955A, “Method for production of kanamycin C and its derivatives” (Zaidan Hojin Biseibutsu Kagaku Kenkyu Kai, priority 1976, dated 1978).
In brackets after ≈: the same amount, converted by molar mass. Entries after “also recorded” stand apart in the source; their conditions may differ. Read-outs that look alike come from different tables or passages of the source.

Assays:
[1] = tested on: resistant strains which produce 6'-acetyltransferases, for example Pseudomonas aeruginosa GN315; conditions: known deoxykanamycin B derivatives; cited from earlier work
[2] = tested on: resistant bacteria which produce 3'-phosphotransferases; conditions: known deoxykanamycin B derivatives; cited from earlier work
[3] = tested on: Pseudomonas aeruginosa TI-13; assay: Minimum inhibitory concentration, serial dilution method; format: cell-based; conditions: TI13, 18 h, read-out: Minimum Inhibitory Concentration
Experimental: (§1) The minimum inhibitory concentrations (mcg/ml) of kanamycin C, 3'-deoxykanamycin C and 3',4'-dideoxykanamycin C against various microorganisms were determened according to serial dilution method using nutrient agar medium at 37° C., the estimation being effected after 18 hours incubation.

[4] = tested on: Pseudomonas aeruginosa GN 315; assay: as above; format: cell-based; conditions: GN315, 18 h, read-out: Minimum Inhibitory Concentration
Experimental: as §1

[5] = tested on: Escherichia coli K-12 ML 1410; assay: as above; format: cell-based; conditions: K12ML1410, nutrient agar, 37° C., 18 hours, E. coli K-12 ML 1410
Experimental: as §1

[6] = tested on: Escherichia coli LA 290 R55; assay: as above; format: cell-based; conditions: LA290R55, 18 h, read-out: Minimum Inhibitory Concentration
Experimental: as §1

[7] = tested on: Escherichia coli K-12 ML 1410 R81; assay: as above; format: cell-based; conditions: 18 h, read-out: Minimum Inhibitory Concentration
Experimental: as §1

[8] = tested on: Escherichia coli K-12 ML 1630; assay: as above; format: cell-based; conditions: K12ML1630, nutrient agar, 37° C., 18 hours, E. coli K-12 ML 1630
Experimental: as §1

[9] = tested on: Klebsiella pneumoniae 22 No. 3038; assay: as above; format: cell-based
Experimental: as §1

Escherichia coli K-12 = assay: as above; format: cell-based
Experimental: as §1

Escherichia coli NIHJ = assay: as above; format: cell-based; conditions: 18 h, read-out: Minimum Inhibitory Concentration
Experimental: as §1

[10] = tested on: Staphylococcus aureus FDA 209P; assay: as above; format: cell-based; conditions: FDA209P, read-out: Minimum Inhibitory Concentration
Experimental: as §1

[11] = tested on: Escherichia coli K-12 ML 1629; assay: as above; format: cell-based; conditions: K12ML1629, 18 h, read-out: Minimum Inhibitory Concentration
Experimental: as §1

[12] = tested on: Escherichia coli JR 66/W677; assay: as above; format: cell-based
Experimental: as §1

[13] = tested on: Pseudomonas aeruginosa A3; assay: as above; format: cell-based; conditions: nutrient agar, 37° C., 18 hours, P. aeruginosa A3
Experimental: as §1

[14] = tested on: Klebsiella pneumoniae PCI 602; assay: as above; format: cell-based
Experimental: as §1

Escherichia coli W 677 = assay: as above; format: cell-based
Experimental: as §1

[15] = tested on: Pseudomonas aeruginosa No. 12; assay: as above; format: cell-based; conditions: NO.12, 18 h, read-out: Minimum Inhibitory Concentration
Experimental: as §1

[16] = tested on: Escherichia coli LA 290 R64; assay: as above; format: cell-based; conditions: LA290R64, 18 h, read-out: Minimum Inhibitory Concentration
Experimental: as §1

[17] = tested on: Escherichia coli LA 290 R56; assay: as above; format: cell-based; conditions: LA290R56, 18 h, read-out: Minimum Inhibitory Concentration
Experimental: as §1

99 = assay: as above; format: cell-based; conditions: 18 h, read-out: Minimum Inhibitory Concentration
Experimental: as §1

[18] = tested on: Mycobacterium smegmatis ATCC 607; assay: as above; format: cell-based; conditions: Mycolicibacterium smegmatis, read-out: Minimum Inhibitory Concentration
Experimental: as §1

[19] = tested on: aminoglycoside 6'-acetyltransferases; conditions: known kanamycins; cited from earlier work
in vivo = conditions: mouse, iv
[20] = tested on: Pseudomonas aeruginosa H 11; assay: Minimum inhibitory concentration, serial dilution method; format: cell-based; conditions: H11, 18 h, read-out: Minimum Inhibitory Concentration
Experimental: as §1

Escherichia coli K-12 R5 = assay: as above; format: cell-based; conditions: K12R5, 18 h, read-out: Minimum Inhibitory Concentration
Experimental: as §1

[21] = tested on: aminoglycoside 6'-acetyltransferases; assay: Inactivation by aminoglycoside 6'-acetyltransferases; format: biochemical

| Structure (SMILES) | MIC [3] [µg/mL] | MIC [4] [µg/mL] | MIC [5] [µg/mL] | MIC [6] [µg/mL] | MIC [7] [µg/mL] | MIC [8] [µg/mL] | MIC (Escherichia coli NIHJ) [µg/mL] | MIC [11] [µg/mL] | MIC [13] [µg/mL] | MIC [15] [µg/mL] | MIC [16] [µg/mL] | MIC [17] [µg/mL] | MIC 99 [µg/mL] | inactivation (acetylation of the 6'-amino group) by 6'-acetyltransferases [19] | also measured |
| --- | --- | --- | --- | --- | --- | --- | --- | --- | --- | --- | --- | --- | --- | --- | --- |
| NCC1OC(OC2C(N)CC(N)C(OC3OC(CO)C(O)C(N)C3O)C2O)C(N)CC1O (stereo not shown) [DKMB, 3'-deoxykanamycin B, reference compound] | 0.78 (≈ 1.67 µM) | 100 (≈ 214 µM) | 1.56 (≈ 3.34 µM) | 25 (≈ 53.5 µM) | 1.56 (≈ 3.34 µM) | 1.56 (≈ 3.34 µM) | 0.78 (≈ 1.67 µM) | 1.56 (≈ 3.34 µM) | 1.56 (≈ 3.34 µM) | 0.78 (≈ 1.67 µM) | 3.13 (≈ 6.69 µM) | 3.13 (≈ 6.69 µM) | 1.56 (≈ 3.34 µM) | can be inactivated; also recorded: acetylate the 6'-amino group | growth inhibition of resistant bacteria producing 6'-acetyltransferases [1]: not able to inhibit the growth; activity against resistant bacteria producing aminoglycoside 3'-phosphotransferases [2]: active; MIC ([9]; nutrient agar, 37° C., 18 hours, K. pneumoniae 22 No. 3038, read-out: Minimum Inhibitory Concentration): 50 µg/mL (≈ 107 µM); MIC (Escherichia coli K-12; K12, nutrient agar, 37° C., 18 hours, E. coli K-12, read-out: Minimum Inhibitory Concentration): 0.39 µg/mL (≈ 0.834 µM); MIC ([10]; nutrient agar, 37° C., 18 hours, S. aureus FDA 209P): < 0.2 µg/mL; MIC ([12]; JR66/W677, nutrient agar, 37° C., 18 hours, E. coli JR 66/W677, read-out: Minimum Inhibitory Concentration): 50 µg/mL (≈ 107 µM); MIC ([14]; PCI602, nutrient agar, 37° C., 18 hours, K. pneumoniae PCI 602, read-out: Minimum Inhibitory Concentration): 0.39 µg/mL (≈ 0.834 µM); MIC (Escherichia coli W 677; W677, nutrient agar, 37° C., 18 hours, E. coli W 677, read-out: Minimum Inhibitory Concentration): 0.39 µg/mL (≈ 0.834 µM); MIC ([18]; ATCC607, nutrient agar, 37° C., 18 hours, M. smegmatis ATCC 607): 0.39 µg/mL (≈ 0.834 µM); LD50 (in vivo): 159 mg/kg |
| NC1CC(N)C(OC2OC(CO)C(O)C(N)C2O)C(O)C1OC1OC(CO)C(O)C(O)C1N (stereo not shown) [Kanamycin C, kanamycin C] | > 100 | > 100 | 6.25 (≈ 12.9 µM) | > 100 | > 100 | > 100 | 3.13 (≈ 6.46 µM) | > 100 | > 100 | 100 (≈ 206 µM) | 25 (≈ 51.6 µM) | 25 (≈ 51.6 µM) | > 100 |  | MIC [20]: > 100 µg/mL; MIC ([9]; 22NO.3038, 18 h, read-out: Minimum Inhibitory Concentration): > 100 µg/mL; MIC (Escherichia coli K-12; K12, 18 h, read-out: Minimum Inhibitory Concentration): 3.13 µg/mL (≈ 6.46 µM); MIC ([10]; 18 h): 1.56 µg/mL (≈ 3.22 µM); MIC ([12]; JR66/W677, 18 h, read-out: Minimum Inhibitory Concentration): > 100 µg/mL; MIC (Escherichia coli K-12 R5): 3.13 µg/mL (≈ 6.46 µM); MIC ([14]; PCI602, 18 h, read-out: Minimum Inhibitory Concentration): 3.13 µg/mL (≈ 6.46 µM); MIC (Escherichia coli W 677; W677, 18 h, read-out: Minimum Inhibitory Concentration): 3.13 µg/mL (≈ 6.46 µM); MIC ([18]; ATCC607, 18 h): 12.5 µg/mL (≈ 25.8 µM); inactivation by 6'-acetyltransferases [21]: inherently cannot be inactivated |
| NCC1OC(OC2C(N)CC(N)C(OC3OC(CO)C(O)C(N)C3O)C2O)C(O)C(O)C1O (stereo not shown) [kanamycin A] |  |  |  |  |  |  |  |  |  |  |  |  |  | acetylate the 6'-amino group |  |
| NC[C@H]1O[C@H](O[C@H]2[C@H](O)[C@@H](O[C@H]3O[C@H](CO)[C@@H](O)[C@H](N)[C@H]3O)[C@H](N)C[C@@H]2N)[C@H](N)[C@@H](O)[C@@H]1O [kanamycin B] |  |  |  |  |  |  |  |  |  |  |  |  |  | acetylate the 6'-amino group |  |
